Data: patent US12152012B2, “BRAG2 inhibitors and applications thereof” (CENTRE NATIONAL DE LA RECHERCHE SCIENTIFIQUE, priority 2018, dated 2024)

Assays:
[1] = test system: GM130 (cis-Golgi marker) in Hela cells; assay: Immunostaining and confocal microscopy of Hela cells; type: cell-based, human; details: for Reversibility of GM130 dispersion: 50 μM 30 min, then 30 min in fresh medium; for Dispersion of GM130 marker: 50 μM, 30 min
Experimental: (§1) FIG. 1. Bragsin2 affects Arf pathways in cells • a. Chemical structures of Bragsin1 and Bragsin2 and derivatives used in this study. Chemical synthesis and structural characterization of the compounds are described in example 6. • b. Bragsin2 disperses the TGN46 and GM130 markers. HeLa cells were treated with either DMSO (0.25%) or Bragsin2 (50 μM) for 30 min, immunostained for TGN46, GM130 or EEA1 (green channel) and analysed by confocal microscopy. Dispersion of GM130 and TGN46 by Bragsin2 is reversible. Hela cells were treated as in FIG. 1a and were incubated for an additional 30 min in fresh medium (wash panel) prior to immunostaining and confocal microscopy analysis. Expression of Arf-mCherry constructs carrying an activating mutation rescues the effect of Bragsin2. Hela cells were transfected with constitutively active Q/L mutants of Arf-mCherry. Note the difference between non-transfected cells (white asterisk) and transfected cells. Scale bars, 10 μm.
(§2) Hela cells were grown in Dulbecco's modified Eagle's medium supplemented with Glutamax™ and 10% fetal bovine serum (Invitrogen). For immunofluorescence studies, cells were grown on Labtek glass slides (Nunc) and transfected for 18 to 24 h using Lipofectamine 2000 (Invitrogen), according to the supplier's instructions. When specified, cells were treated with the indicated concentration of small molecule or corresponding volume of vehicle (DMSO) in growth medium for 30 min at 37° C.
(§3) Immunostaining procedure was as described in (Viaud, J. et al. Structure-based discovery of an inhibitor of Arf activation by Sec7 domains through targeting of protein-protein complexes. Proc Natl Acad Sci USA 104, 10370-5 (2007)) except that secondary antibody incubation was performed for 1h using Alexa 488-conjugated goat anti-mouse (1:600) or donkey anti-sheep (1:500) IgG and Alexa 647-conjugated phalloidin (1:100). Anti-GM130 was used at dilution 1:200. Images were bidirectionally recorded using an inverted Leica TCS SP8 laser-scanning confocal microscope with a 100× (N. A. 1.40) oil objective (HCX APO, Leica). Fluorochromes were detected sequentially using excitation laser lines at 488 nm (Alexa 488), 594 nm (mCherry) and 633 nm (Alexa 647). Stacks were generated using a z-step of 0.5 μm and processed using Fiji/ImageJ (Schindelin, J. et al. Fiji: an open-source platform for biological-image analysis. Nat Methods 9, 676-82 (2012)). Images are representative of at least two independent experiments.

[2] = test system: TGN46 (trans-Golgi network marker) in Hela cells; assay: as above; type: cell-based, human; details: for Reversibility of TGN46 dispersion / Dispersion of TGN46 marker: Hela cells; for Reversibility of TGN46 dispersion: 50 μM 30 min, then 30 min in fresh medium; for Dispersion of TGN46 marker: 50 μM, 30 min; for Rescue of compound-induced TGN46 dispersion by constitutively active Arf1, Arf5, Arf6 Q/L-mCherry: transfected Hela cells
Experimental: as §1, §2, §3

[3] = Stability of DMSO stock solution (1H-NMR); type: physicochemical; details: kept in DMSO for several months

Compound | Reversibility of GM130 dispersion [1] | Dispersion of GM130 marker [1] | Reversibility of TGN46 dispersion [2] | Dispersion of TGN46 marker [2] | Rescue of compound-induced TGN46 dispersion by constitutively active Arf1, Arf5, Arf6 Q/L-mCherry [2] | Stability in DMSO stock solution by 1H-NMR [3]
Cc1ccc2oc(C(F)(F)F)cc(=O)c2c1[N+](=O)[O-] [Bragsin1, 6-methyl-5-nitro-2-(trifluoromethyl)-4H-chromen-4-one] | reversible | disperses | reversible | disperses | rescues | completely decomposed
COc1ccc2oc(C(F)(F)F)cc(=O)c2c1[N+](=O)[O-] [Bragsin2, 6-methoxy-5-nitro-2-(trifluoromethyl)-4H-chromen-4-one] | reversible | disperses | reversible | disperses | rescues | –
